Values of other authors, collected in publication PMC6377828 (Clinical cancer research : an official journal of the …, 2018).
Like-named read-outs stand apart in the source and are kept apart here.

Test system: αvβ6-expressing xenograft tumor
Conditions: murine xenograft models

Substance: [^18F]FBA-A20FMDV2
- tumor uptake (1 h): 0.66 % ID/g
- tumor uptake (4 h): 0.06 % ID/g
